Results taken from publication PMC10660663.

Tests used:
[1] = Enantiospecific SuFEx S-O bond formation: enantiopure di-sulfonimidoyl fluoride + sodium diphenolate (1:1), [1+1] macrocyclisation, one pot; details: the molecule shown is the open-chain precursor, MeCN, 12.5 mM, 60.0 °C, 6.0 h
[2] = SuFEx S-O bond formation: di-sulfonimidoyl fluoride (mixture of diastereomers) + diphenol (1:1), DBU 2.1 equiv, [1+1] macrocyclisation, one pot; details: the molecule shown is the open-chain precursor, MeCN, 20.0 mM, 50.0 °C

## Cc1ccc([S@@](=O)(F)=NC(=O)c2ccc(Oc3ccc(C(=O)N=[S@@](=O)(Oc4ccc(C(C)(C)c5cccc(C(C)(C)c6ccc([O-])cc6)c5)cc4)c4ccc(C)cc4)cc3)cc2)cc1 [(S,S)-3o (diphenyl ether)]
[1]; 30-membered ring
  ring closure, isolated yield: 64%

## Cc1ccc([S@@](=O)(F)=NC(=O)c2ccc(-c3ccc(C(=O)N=[S@@](=O)(Oc4ccc(C(C)(C)c5cccc(C(C)(C)c6ccc([O-])cc6)c5)cc4)c4ccc(C)cc4)cc3)cc2)cc1 [(S,S)-3y]
[1]; 29-membered ring
  ring closure, isolated yield: 37%

## Cc1ccc([S@@](=O)(F)=NC(=O)c2ccc(C(=O)N=[S@@](=O)(Oc3ccc(C(C)(C)c4cccc(C(C)(C)c5ccc([O-])cc5)c4)cc3)c3ccc(C)cc3)cc2)cc1 [(S,S)-3c]
[1]; 25-membered ring
  ring closure, isolated yield: 42%

## Cc1ccc([S@@](=O)(F)=NC(=O)c2ccc(-c3ccc(C(=O)N=[S@@](=O)(Oc4ccc(C(c5ccc([O-])cc5)(C(F)(F)F)C(F)(F)F)cc4)c4ccc(C)cc4)cc3)cc2)cc1 [[1+1] of 4j (not observed)]
[1]; 25-membered ring
  ring closure, isolated yield: 0%

## Cc1ccc(S(=O)(F)=NC(=O)c2ccc(C(=O)N=S(=O)(Oc3ccc(Cc4ccc(O)cc4)cc3)c3ccc(C)cc3)cc2)cc1 (stereo not drawn) [3u (10 mM, 6 h)]
[2]; 21-membered ring, 6.0 h
  ring closure, isolated yield: 94%

## CCC(c1ccc(O)cc1)C(CC)c1ccc(OS(=O)(=NC(=O)c2ccc(C(=O)N=S(=O)(F)c3ccc(C)cc3)cc2)c2ccc(C)cc2)cc1 (stereo not drawn) [3b]
[2]; 22-membered ring, 3.0 h
  ring closure, isolated yield: 61%

## Cc1ccc([S@@](=O)(F)=NC(=O)c2ccc(C(=O)N=[S@@](=O)(Oc3ccc(Oc4ccc([O-])cc4)cc3)c3ccc(C)cc3)cc2)cc1 [(S,S)-3v]
[1]; 21-membered ring
  ring closure, isolated yield: 34%

## Cc1ccc(S(=O)(F)=NC(=O)c2ccc(Oc3ccc(C(=O)N=S(=O)(Oc4ccc(SSc5ccc(O)cc5)cc4)c4ccc(C)cc4)cc3)cc2)cc1 (stereo not drawn) [3i]
[2]; 27-membered ring, 3.0 h
  ring closure, isolated yield: 91%

## Cc1ccc(S(=O)(F)=NC(=O)c2cccc(C(=O)N=S(=O)(Oc3cccc(Oc4cccc(Oc5cccc(O)c5)c4)c3)c3ccc(C)cc3)c2)cc1 (stereo not drawn) [3p]
[2]; 22-membered ring, 3.0 h
  ring closure, isolated yield: 69%

## Cc1ccc(S(=O)(F)=NC(=O)c2ccc(C(=O)N=S(=O)(Oc3ccc(OCCCCCCCCOc4ccc(O)cc4)cc3)c3ccc(C)cc3)cc2)cc1 (stereo not drawn) [3h]
[2]; 30-membered ring, 3.0 h
  ring closure, isolated yield: 62%

## Cc1ccc(S(=O)(F)=NC(=O)c2ccc(Oc3ccc(C(=O)N=S(=O)(Oc4ccc(OCCOc5ccc(O)cc5)cc4)c4ccc(C)cc4)cc3)cc2)cc1 (stereo not drawn) [3l]
[2]; 29-membered ring, 3.0 h
  ring closure, isolated yield: 67%

## Cc1ccc([S@@](=O)(F)=NC(=O)c2ccc(C(=O)N=[S@@](=O)(Oc3ccc(C(C)(C)c4ccc([O-])cc4)cc3)c3ccc(C)cc3)cc2)cc1 [(S,S)-3w]
[1]; 21-membered ring
  ring closure, isolated yield: 62%

## Cc1ccc([S@@](=O)(F)=NC(=O)c2ccc(C(=O)N=[S@@](=O)(Oc3cccc(Oc4cccc(Oc5cccc([O-])c5)c4)c3)c3ccc(C)cc3)cc2)cc1 [(S,S)-3d]
[1]; 23-membered ring
  ring closure, isolated yield: 71%

## Cc1ccc([S@@](=O)(F)=NC(=O)c2ccc(C(=O)N=[S@@](=O)(Oc3ccccc3CNCCNCc3ccccc3[O-])c3ccc(C)cc3)cc2)cc1 [(S,S)-3f]
[1]; 22-membered ring
  ring closure, isolated yield: 75%

## Cc1ccc(S(=O)(F)=NC(=O)c2ccc(-c3ccc(C(=O)N=S(=O)(Oc4ccc(C(C)(C)c5cccc(C(C)(C)c6ccc(O)cc6)c5)cc4)c4ccc(C)cc4)cc3)cc2)cc1 (stereo not drawn) [3t]
[2]; 29-membered ring, 3.0 h
  ring closure, isolated yield: 90%

## Cc1ccc(S(=O)(F)=NC(=O)c2cccc(C(=O)N=S(=O)(Oc3ccc(SSc4ccc(O)cc4)cc3)c3ccc(C)cc3)n2)cc1 (stereo not drawn) [3r]
[2]; 21-membered ring, 3.0 h
  ring closure, isolated yield: 91%

## Cc1ccc([S@@](=O)(F)=NC(=O)c2ccc(-c3ccc(C(=O)N=[S@@](=O)(Oc4ccc(Cc5ccc([O-])cc5)cc4)c4ccc(C)cc4)cc3)cc2)cc1 [[1+1] of 4f (not observed)]
[1]; 25-membered ring
  ring closure, isolated yield: 0%

## Cc1ccc(S(=O)(F)=NC(=O)c2ccc(-c3ccc(C(=O)N=S(=O)(Oc4ccccc4CNCCCCCCNCc4ccccc4O)c4ccc(C)cc4)cc3)cc2)cc1 (stereo not drawn) [3s]
[2]; 30-membered ring, 3.0 h
  ring closure, isolated yield: 80%

## Cc1ccc([S@](=O)(F)=NC(=O)c2ccc(-c3ccc(C(=O)N=[S@](=O)(Oc4ccc(C(C)(C)c5cccc(C(C)(C)c6ccc([O-])cc6)c5)cc4)c4ccc(C)cc4)cc3)cc2)cc1 [(R,R)-3y]
[1]; 29-membered ring
  ring closure, isolated yield: 27%

## CCC(c1ccc(O)cc1)C(CC)c1ccc(OS(=O)(=NC(=O)c2ccc(Oc3ccc(C(=O)N=S(=O)(F)c4ccc(C)cc4)cc3)cc2)c2ccc(C)cc2)cc1 (stereo not drawn) [3j]
[2]; 27-membered ring, 3.0 h
  ring closure, isolated yield: 88%

## Cc1ccc(S(=O)(F)=NC(=O)c2cccc(C(=O)N=S(=O)(Oc3ccc(SSc4ccc(O)cc4)cc3)c3ccc(C)cc3)c2)cc1 (stereo not drawn) [3n]
[2]; 21-membered ring, 3.0 h
  ring closure, isolated yield: 72%

## Cc1ccc([S@](=O)(F)=NC(=O)c2ccc(Oc3ccc(C(=O)N=[S@](=O)(Oc4ccc(C(c5ccc([O-])cc5)(C(F)(F)F)C(F)(F)F)cc4)c4ccc(C)cc4)cc3)cc2)cc1 [(R,R)-3Ad]
[1]; 26-membered ring
  ring closure, isolated yield: 12%

## Cc1ccc([S@](=O)(F)=NC(=O)c2ccc(C(=O)N=[S@](=O)(Oc3ccc(C(C)(C)c4cccc(C(C)(C)c5ccc([O-])cc5)c4)cc3)c3ccc(C)cc3)cc2)cc1 [(R,R)-3c]
[1]; 25-membered ring
  ring closure, isolated yield: 35%

## Cc1ccc([S@](=O)(F)=NC(=O)c2ccc(Oc3ccc(C(=O)N=[S@](=O)(Oc4ccc(C(C)(C)c5cccc(C(C)(C)c6ccc([O-])cc6)c5)cc4)c4ccc(C)cc4)cc3)cc2)cc1 [(R,R)-3o (diphenyl ether)]
[1]; 30-membered ring
  ring closure, isolated yield: 65%

## Cc1ccc([S@@](=O)(F)=NC(=O)c2ccc(Oc3ccc(C(=O)N=[S@@](=O)(Oc4ccc(C(c5ccc([O-])cc5)(C(F)(F)F)C(F)(F)F)cc4)c4ccc(C)cc4)cc3)cc2)cc1 [(S,S)-3Ad]
[1]; 26-membered ring
  ring closure, isolated yield: 20%

## Cc1ccc([S@@](=O)(F)=NC(=O)c2ccc(Oc3ccc(C(=O)N=[S@@](=O)(Oc4ccc(Oc5ccc([O-])cc5)cc4)c4ccc(C)cc4)cc3)cc2)cc1 [(S,S)-3Ab]
[1]; 26-membered ring
  ring closure, isolated yield: 14%

## Cc1ccc([S@](=O)(F)=NC(=O)c2ccc(Oc3ccc(C(=O)N=[S@](=O)(Oc4ccc(C(C)(C)c5ccc([O-])cc5)cc4)c4ccc(C)cc4)cc3)cc2)cc1 [(R,R)-3Ac]
[1]; 26-membered ring
  ring closure, isolated yield: 14%

## Cc1ccc([S@](=O)(F)=NC(=O)c2ccc(C(=O)N=[S@](=O)(Oc3ccc(C(C)(C)c4ccc([O-])cc4)cc3)c3ccc(C)cc3)cc2)cc1 [(R,R)-3w]
[1]; 21-membered ring
  ring closure, isolated yield: 54%

## Cc1ccc([S@](=O)(F)=NC(=O)c2ccc(Oc3ccc(C(=O)N=[S@](=O)(Oc4ccc(Oc5ccc([O-])cc5)cc4)c4ccc(C)cc4)cc3)cc2)cc1 [(R,R)-3Ab]
[1]; 26-membered ring
  ring closure, isolated yield: 10%

## Cc1ccc([S@@](=O)(F)=NC(=O)c2ccc(Oc3ccc(C(=O)N=[S@@](=O)(Oc4ccc(C(C)(C)c5ccc([O-])cc5)cc4)c4ccc(C)cc4)cc3)cc2)cc1 [(S,S)-3Ac]
[1]; 26-membered ring
  ring closure, isolated yield: 16%

## Cc1ccc([S@@](=O)(F)=NC(=O)c2ccc(-c3ccc(C(=O)N=[S@@](=O)(Oc4ccc(Oc5ccc([O-])cc5)cc4)c4ccc(C)cc4)cc3)cc2)cc1 [[1+1] of 4g (not observed)]
[1]; 25-membered ring
  ring closure, isolated yield: 0%

## Cc1ccc([S@](=O)(F)=NC(=O)c2ccc(Oc3ccc(C(=O)N=[S@](=O)(Oc4ccc(Cc5ccc([O-])cc5)cc4)c4ccc(C)cc4)cc3)cc2)cc1 [(R,R)-3Aa]
[1]; 26-membered ring
  ring closure, isolated yield: 12%

## Cc1ccc([S@@](=O)(F)=NC(=O)c2ccc(-c3ccc(C(=O)N=[S@@](=O)(Oc4ccc(C(C)(C)c5ccc([O-])cc5)cc4)c4ccc(C)cc4)cc3)cc2)cc1 [[1+1] of 4i (not observed)]
[1]; 25-membered ring
  ring closure, isolated yield: 0%

## Cc1ccc([S@@](=O)(F)=NC(=O)c2ccc(C(=O)N=[S@@](=O)(Oc3ccc(C(c4ccc([O-])cc4)(C(F)(F)F)C(F)(F)F)cc3)c3ccc(C)cc3)cc2)cc1 [(S,S)-3x]
[1]; 21-membered ring
  ring closure, isolated yield: 33%

## Cc1ccc([S@](=O)(F)=NC(=O)c2ccc(C(=O)N=[S@](=O)(Oc3ccc(Cc4ccc([O-])cc4)cc3)c3ccc(C)cc3)cc2)cc1 [(R,R)-3u]
[1]; 21-membered ring
  ring closure, isolated yield: 42%

## Cc1ccc([S@](=O)(F)=NC(=O)c2ccc(C(=O)N=[S@](=O)(Oc3ccc(Oc4ccc([O-])cc4)cc3)c3ccc(C)cc3)cc2)cc1 [(R,R)-3v]
[1]; 21-membered ring
  ring closure, isolated yield: 26%

## Cc1ccc([S@@](=O)(F)=NC(=O)c2ccc(C(=O)N=[S@@](=O)(Oc3ccc(SSc4ccc([O-])cc4)cc3)c3ccc(C)cc3)cc2)cc1 [(S,S)-3a]
[1]; 22-membered ring
  ring closure, isolated yield: 93%

## Cc1ccc([S@](=O)(F)=NC(=O)c2ccc(C(=O)N=[S@](=O)(Oc3ccc(C(c4ccc([O-])cc4)(C(F)(F)F)C(F)(F)F)cc3)c3ccc(C)cc3)cc2)cc1 [(R,R)-3x]
[1]; 21-membered ring
  ring closure, isolated yield: 35%

## Cc1ccc([S@@](=O)(F)=NC(=O)c2cccc(C(=O)N=[S@@](=O)(Oc3ccc(SSc4ccc([O-])cc4)cc3)c3ccc(C)cc3)n2)cc1 [(S,S)-3r]
[1]; 21-membered ring
  ring closure, isolated yield: 71%

## Cc1ccc([S@@](=O)(F)=NC(=O)c2ccc(Oc3ccc(C(=O)N=[S@@](=O)(Oc4cccc(Oc5cccc(Oc6cccc([O-])c6)c5)c4)c4ccc(C)cc4)cc3)cc2)cc1 [(S,S)-3k]
[1]; 28-membered ring
  ring closure, isolated yield: 85%

## Cc1ccc([S@@](=O)(F)=NC(=O)c2ccc(C(=O)N=[S@@](=O)(Oc3ccc(Cc4ccc([O-])cc4)cc3)c3ccc(C)cc3)cc2)cc1 [(S,S)-3u]
[1]; 21-membered ring
  ring closure, isolated yield: 54%

## Cc1ccc([S@@](=O)(F)=NC(=O)c2ccc(Oc3ccc(C(=O)N=[S@@](=O)(Oc4ccc(Cc5ccc([O-])cc5)cc4)c4ccc(C)cc4)cc3)cc2)cc1 [(S,S)-3Aa]
[1]; 26-membered ring
  ring closure, isolated yield: 12%
